Publication PMC11249637, “Interaction of the Atypical Tetracyclines Chelocardin and Amidochelocardin with Renal Drug Transporters” (ACS Pharmacology & Translational Science, 2024)

Legend:
hOAT3 = target: T1, hOAT3 (Homo sapiens, UniProt Q8TCC7); assay: Two-point inhibition of hOAT3-mediated ES uptake in transfected HEK293 cells; format: in vitro ADME; details: ES 1 μM, 1 min
T1 construct: expressed in transfected cells; host or cells: HEK293
T1 sequence (Q8TCC7 1-542): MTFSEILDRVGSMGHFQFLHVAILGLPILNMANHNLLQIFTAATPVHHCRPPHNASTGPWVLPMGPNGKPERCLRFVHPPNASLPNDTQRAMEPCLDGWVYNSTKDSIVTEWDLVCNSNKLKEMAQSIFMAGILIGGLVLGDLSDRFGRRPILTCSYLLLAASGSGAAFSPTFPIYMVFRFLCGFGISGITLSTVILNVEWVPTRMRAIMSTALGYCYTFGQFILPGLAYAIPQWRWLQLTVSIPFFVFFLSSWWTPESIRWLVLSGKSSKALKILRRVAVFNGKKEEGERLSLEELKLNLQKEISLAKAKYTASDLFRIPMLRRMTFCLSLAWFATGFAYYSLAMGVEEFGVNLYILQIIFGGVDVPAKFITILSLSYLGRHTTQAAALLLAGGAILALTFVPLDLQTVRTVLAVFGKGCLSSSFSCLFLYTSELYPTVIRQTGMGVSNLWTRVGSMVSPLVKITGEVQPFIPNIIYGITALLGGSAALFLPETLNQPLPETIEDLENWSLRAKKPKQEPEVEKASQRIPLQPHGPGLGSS
Description: (§1) Well-characterized mOct1-, mOct2-, mOat1-, mOat2-, mOat3-, mMate1-, hOAT1-, hOAT3-, hOAT4-, hMRP2-, mMdr1a- and mMdr1b-transfected HEK293 cells and the respective vector-transfected control HEK293 cells were used.[42],[51],[52] All HEK293 cells (transporter-transfected and vector-transfected) were cultured in DMEM (Sigma, high glucose, 10% FBS, 1% penicillin (10,000 Units/mL)/streptomycin (10 mg/mL)) at 37°C under 5% CO2 in humidified atmosphere. The cells were routinely checked for the absence of mycoplasma infection. For the preparation of HEK293 cell monolayers, 24-well plates were pretreated with a poly-D-lysine hydrobromide solution (0.1 mg/mL). […]
(§2) For the uptake assay, the growth medium was aspirated, and each well was rinsed three times with 0.5 mL of incubation buffer (HBSS supplemented with 20 mM HEPES, pH 7.4) and incubated for 20 min at 37 °C. […] Cells were solubilized with 0.6 mL of 1N NaOH overnight and transferred into scintillation vials. ^3H and ^14C contents were measured after the addition of 2.5 mL of scintillator in a liquid scintillation counter.
(§3) The cellular protein amount was determined in parallel for each cell line (vector- and transporter-transfected) from six wells in a different 24-well reference plate using the Bradford method. […]
(§4) The inhibitory effect (I(%)) was calculated according to the formula: [drawing 5] […]

mOct2 = target: T2, mOct2 (Mus musculus, UniProt O70577); assay: Two-point inhibition of mOct2-mediated MPP uptake in transfected HEK293 cells; format: in vitro ADME; details: 1 and 10 μM; MPP 10 μM, 1 min
T2 construct: expressed in transfected cells; host or cells: HEK293
T2 sequence (O70577 1-553): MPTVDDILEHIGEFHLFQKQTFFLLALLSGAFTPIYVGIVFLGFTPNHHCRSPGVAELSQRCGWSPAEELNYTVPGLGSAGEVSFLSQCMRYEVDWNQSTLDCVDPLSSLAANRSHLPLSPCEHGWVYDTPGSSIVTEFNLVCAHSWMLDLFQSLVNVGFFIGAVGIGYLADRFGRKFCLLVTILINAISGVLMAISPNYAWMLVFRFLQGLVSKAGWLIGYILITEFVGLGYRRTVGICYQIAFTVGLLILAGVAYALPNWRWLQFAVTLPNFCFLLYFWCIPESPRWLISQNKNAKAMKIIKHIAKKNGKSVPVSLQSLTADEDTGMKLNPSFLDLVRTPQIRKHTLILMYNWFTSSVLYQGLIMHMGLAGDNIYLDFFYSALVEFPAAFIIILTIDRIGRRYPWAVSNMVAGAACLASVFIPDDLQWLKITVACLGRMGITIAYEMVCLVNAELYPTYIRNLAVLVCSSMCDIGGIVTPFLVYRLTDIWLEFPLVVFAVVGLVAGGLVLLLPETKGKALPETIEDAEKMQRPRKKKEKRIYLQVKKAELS
Description: as §1, §2, §3, §4

SMILES	inhibition of hOAT3 (in words) (hOAT3; 1 and 10 μM)	inhibitory effect on mOct2 (in words) (mOct2)	inhibition at 10 µM (hOAT3; HEK293, at 10 μM, read-out: inhibitory effect on hOAT3) [%]
Cc1ccc2c(C)c3c(c(O)c2c1O)C(=O)[C@@]1(O)C(=O)C(C(N)=O)=C(O)[C@@H](N)[C@H]1C3 [CDCHD, amidochelocardin]	only marginally	No inhibitory effect	
CC(=O)C1=C(O)[C@@H](N)[C@H]2Cc3c(c(O)c4c(O)c(C)ccc4c3C)C(=O)[C@@]2(O)C1=O [CHD, chelocardin]		No inhibitory effect	~75
